{"source": "the kinase profiling compilation of Christmann-Franck et al. (2016)", "assay_in_all_cases": "KINOMEscan competition binding", "conditions_in_all_cases": "compound 10.0 µM", "key": {"INSRR (human)": {"biological_target": "INSRR (human) (UniProt P14616)", "sequence (P14616 whole entry, looked up)": "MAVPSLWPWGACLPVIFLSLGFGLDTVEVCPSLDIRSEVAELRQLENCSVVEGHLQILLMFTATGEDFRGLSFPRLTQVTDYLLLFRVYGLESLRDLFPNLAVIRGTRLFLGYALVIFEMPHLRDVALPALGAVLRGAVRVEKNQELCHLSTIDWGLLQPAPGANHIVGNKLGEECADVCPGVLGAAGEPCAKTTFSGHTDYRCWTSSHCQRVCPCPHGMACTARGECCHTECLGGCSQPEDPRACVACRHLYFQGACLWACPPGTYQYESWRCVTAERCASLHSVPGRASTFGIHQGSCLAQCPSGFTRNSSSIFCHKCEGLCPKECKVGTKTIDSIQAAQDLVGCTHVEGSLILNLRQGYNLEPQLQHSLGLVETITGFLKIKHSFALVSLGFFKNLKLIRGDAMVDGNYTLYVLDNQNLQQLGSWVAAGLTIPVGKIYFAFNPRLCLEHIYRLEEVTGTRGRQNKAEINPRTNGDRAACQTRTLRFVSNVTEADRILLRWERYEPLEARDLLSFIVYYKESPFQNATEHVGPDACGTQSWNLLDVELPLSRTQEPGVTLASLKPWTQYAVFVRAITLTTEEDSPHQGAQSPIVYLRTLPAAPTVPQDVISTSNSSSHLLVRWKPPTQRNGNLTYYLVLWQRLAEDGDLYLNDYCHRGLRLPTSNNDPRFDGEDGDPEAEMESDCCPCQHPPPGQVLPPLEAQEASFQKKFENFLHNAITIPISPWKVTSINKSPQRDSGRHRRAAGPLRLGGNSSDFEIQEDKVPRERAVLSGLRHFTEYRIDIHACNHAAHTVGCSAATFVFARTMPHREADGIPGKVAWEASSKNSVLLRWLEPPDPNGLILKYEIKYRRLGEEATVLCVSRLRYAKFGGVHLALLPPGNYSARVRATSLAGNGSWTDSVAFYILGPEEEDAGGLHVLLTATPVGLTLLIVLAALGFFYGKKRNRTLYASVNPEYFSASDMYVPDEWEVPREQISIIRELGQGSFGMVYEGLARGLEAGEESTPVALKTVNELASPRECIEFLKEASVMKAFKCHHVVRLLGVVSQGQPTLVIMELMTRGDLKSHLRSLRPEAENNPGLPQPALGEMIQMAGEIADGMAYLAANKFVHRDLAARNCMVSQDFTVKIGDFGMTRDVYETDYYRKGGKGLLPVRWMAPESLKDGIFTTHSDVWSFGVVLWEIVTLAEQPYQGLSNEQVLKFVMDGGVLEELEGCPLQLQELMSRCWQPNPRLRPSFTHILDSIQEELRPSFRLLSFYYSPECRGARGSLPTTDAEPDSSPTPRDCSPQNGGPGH"}, "STK25 (human)": {"biological_target": "STK25 (human) (UniProt O00506)"}, "CAMKK1 (human)": {"biological_target": "CAMKK1 (human) (UniProt Q8N5S9)"}, "STK38L (human)": {"biological_target": "STK38L (human) (UniProt Q9Y2H1)"}, "ALK (human)": {"biological_target": "ALK (human) (UniProt Q9UM73)"}, "CSNK1A1L (human)": {"biological_target": "CSNK1A1L (human) (UniProt Q8N752)", "sequence (Q8N752 whole entry, looked up)": "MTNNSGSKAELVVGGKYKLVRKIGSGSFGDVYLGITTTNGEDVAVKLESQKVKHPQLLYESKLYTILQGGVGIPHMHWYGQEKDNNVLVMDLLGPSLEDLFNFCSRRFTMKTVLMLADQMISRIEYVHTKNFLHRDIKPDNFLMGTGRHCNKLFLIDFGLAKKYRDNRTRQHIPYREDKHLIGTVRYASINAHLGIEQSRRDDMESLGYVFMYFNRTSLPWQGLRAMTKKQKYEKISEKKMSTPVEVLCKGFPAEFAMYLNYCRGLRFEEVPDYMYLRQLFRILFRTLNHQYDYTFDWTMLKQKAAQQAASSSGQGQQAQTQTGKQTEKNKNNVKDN"}, "NEK9 (human)": {"biological_target": "NEK9 (human) (UniProt Q8TD19)", "sequence (Q8TD19 whole entry, looked up)": "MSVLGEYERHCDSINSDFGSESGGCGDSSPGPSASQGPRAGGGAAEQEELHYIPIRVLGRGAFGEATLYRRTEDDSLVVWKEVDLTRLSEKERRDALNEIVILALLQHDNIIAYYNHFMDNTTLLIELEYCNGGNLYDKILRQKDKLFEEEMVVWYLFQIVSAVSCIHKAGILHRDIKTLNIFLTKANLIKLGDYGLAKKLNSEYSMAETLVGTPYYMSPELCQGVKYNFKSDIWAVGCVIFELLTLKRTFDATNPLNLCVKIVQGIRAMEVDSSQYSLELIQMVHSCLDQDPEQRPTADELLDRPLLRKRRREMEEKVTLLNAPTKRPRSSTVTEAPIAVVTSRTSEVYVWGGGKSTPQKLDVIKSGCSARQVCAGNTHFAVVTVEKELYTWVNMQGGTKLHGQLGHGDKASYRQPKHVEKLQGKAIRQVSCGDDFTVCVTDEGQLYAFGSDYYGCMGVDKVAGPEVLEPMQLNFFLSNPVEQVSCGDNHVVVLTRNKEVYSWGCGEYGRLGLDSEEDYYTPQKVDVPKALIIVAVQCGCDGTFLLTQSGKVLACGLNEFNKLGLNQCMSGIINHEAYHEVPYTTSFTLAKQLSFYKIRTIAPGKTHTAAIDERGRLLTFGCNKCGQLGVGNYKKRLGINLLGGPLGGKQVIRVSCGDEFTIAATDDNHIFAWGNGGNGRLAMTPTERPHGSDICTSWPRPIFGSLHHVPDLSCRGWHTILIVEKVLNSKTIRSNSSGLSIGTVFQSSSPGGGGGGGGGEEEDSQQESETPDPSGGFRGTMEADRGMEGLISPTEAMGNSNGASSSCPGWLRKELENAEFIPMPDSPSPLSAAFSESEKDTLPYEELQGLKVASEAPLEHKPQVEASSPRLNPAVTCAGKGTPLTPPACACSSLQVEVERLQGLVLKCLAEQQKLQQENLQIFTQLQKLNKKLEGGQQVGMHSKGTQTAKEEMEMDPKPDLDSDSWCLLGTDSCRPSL"}, "PRKAA1 (human)": {"biological_target": "PRKAA1 (human) (UniProt Q13131)"}, "MAPK3 (human)": {"biological_target": "MAPK3 (human) (UniProt P27361)"}, "SIK2 (human)": {"biological_target": "SIK2 (human) (UniProt Q9H0K1)"}, "STK16 (human)": {"biological_target": "STK16 (human) (UniProt O75716)"}, "MYO3A (human)": {"biological_target": "MYO3A (human) (UniProt Q8NEV4)", "sequence (Q8NEV4 whole entry, looked up)": "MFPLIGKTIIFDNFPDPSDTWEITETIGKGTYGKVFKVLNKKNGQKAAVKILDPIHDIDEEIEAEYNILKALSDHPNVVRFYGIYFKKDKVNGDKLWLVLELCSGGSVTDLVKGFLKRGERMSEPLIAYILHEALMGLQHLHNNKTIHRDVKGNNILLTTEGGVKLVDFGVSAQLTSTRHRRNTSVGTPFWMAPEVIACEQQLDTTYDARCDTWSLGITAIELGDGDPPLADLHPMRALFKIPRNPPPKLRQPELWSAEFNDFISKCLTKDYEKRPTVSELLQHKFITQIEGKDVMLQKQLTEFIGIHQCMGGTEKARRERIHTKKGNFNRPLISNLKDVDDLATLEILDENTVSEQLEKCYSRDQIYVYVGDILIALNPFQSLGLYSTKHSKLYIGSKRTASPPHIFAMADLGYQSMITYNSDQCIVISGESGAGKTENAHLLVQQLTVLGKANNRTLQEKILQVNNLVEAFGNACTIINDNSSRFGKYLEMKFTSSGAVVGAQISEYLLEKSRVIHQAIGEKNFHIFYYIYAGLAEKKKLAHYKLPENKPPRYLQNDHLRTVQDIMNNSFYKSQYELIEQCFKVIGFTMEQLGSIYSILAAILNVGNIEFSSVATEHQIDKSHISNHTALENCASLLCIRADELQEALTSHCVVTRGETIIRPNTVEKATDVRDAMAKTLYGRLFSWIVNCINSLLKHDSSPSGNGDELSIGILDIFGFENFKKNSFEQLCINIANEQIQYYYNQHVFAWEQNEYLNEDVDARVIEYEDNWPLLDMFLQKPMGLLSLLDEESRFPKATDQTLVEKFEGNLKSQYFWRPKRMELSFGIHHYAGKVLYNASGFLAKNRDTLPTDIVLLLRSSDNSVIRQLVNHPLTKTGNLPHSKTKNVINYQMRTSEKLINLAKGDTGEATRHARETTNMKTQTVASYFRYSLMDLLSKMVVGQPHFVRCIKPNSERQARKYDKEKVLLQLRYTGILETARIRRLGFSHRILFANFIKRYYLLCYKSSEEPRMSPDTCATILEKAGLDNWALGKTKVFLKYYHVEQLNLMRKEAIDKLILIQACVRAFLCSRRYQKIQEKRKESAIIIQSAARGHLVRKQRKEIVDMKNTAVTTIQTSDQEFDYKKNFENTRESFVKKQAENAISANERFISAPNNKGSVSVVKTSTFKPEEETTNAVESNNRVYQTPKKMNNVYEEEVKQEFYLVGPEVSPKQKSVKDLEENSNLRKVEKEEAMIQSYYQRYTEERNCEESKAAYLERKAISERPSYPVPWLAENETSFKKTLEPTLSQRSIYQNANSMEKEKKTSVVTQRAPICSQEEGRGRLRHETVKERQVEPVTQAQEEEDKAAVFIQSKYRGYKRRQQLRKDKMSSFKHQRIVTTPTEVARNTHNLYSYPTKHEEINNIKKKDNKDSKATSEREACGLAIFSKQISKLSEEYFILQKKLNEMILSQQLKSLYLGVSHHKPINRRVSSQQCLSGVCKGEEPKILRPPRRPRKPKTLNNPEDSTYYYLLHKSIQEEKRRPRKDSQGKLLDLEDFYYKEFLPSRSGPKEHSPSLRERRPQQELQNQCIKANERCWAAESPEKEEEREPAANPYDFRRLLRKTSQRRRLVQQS"}, "GSK3A (human)": {"biological_target": "GSK3A (human) (UniProt P49840)"}, "CDK9 (human)": {"biological_target": "CDK9 (human) (UniProt P50750)"}, "LATS2 (human)": {"biological_target": "LATS2 (human) (UniProt Q9NRM7)"}, "CDC42BPA (human)": {"biological_target": "CDC42BPA (human) (UniProt Q5VT25)"}, "IKBKE (human)": {"biological_target": "IKBKE (human) (UniProt Q14164)"}, "MARK1 (human)": {"biological_target": "MARK1 (human) (UniProt Q9P0L2)"}, "SYK (human)": {"biological_target": "SYK (human) (UniProt P43405)"}, "PRKX (human)": {"biological_target": "PRKX (human) (UniProt P51817)"}, "ROS1 (human)": {"biological_target": "ROS1 (human) (UniProt P08922)"}, "MST1R (human)": {"biological_target": "MST1R (human) (UniProt Q04912)"}, "CLK3 (human)": {"biological_target": "CLK3 (human) (UniProt P49761)"}, "MAP4K2 (human)": {"biological_target": "MAP4K2 (human) (UniProt Q12851)"}, "TGFBR2 (human)": {"biological_target": "TGFBR2 (human) (UniProt P37173)"}, "NEK6 (human)": {"biological_target": "NEK6 (human) (UniProt Q9HC98)"}, "[1]": {"biological_target": "JAK3 JH1 catalytic (human) (UniProt P52333)"}, "CLK1 (human)": {"biological_target": "CLK1 (human) (UniProt P49759)"}, "SLK (human)": {"biological_target": "SLK (human) (UniProt Q9H2G2)"}, "PRKACB (human)": {"biological_target": "PRKACB (human) (UniProt P22694)"}, "MARK4 (human)": {"biological_target": "MARK4 (human) (UniProt Q96L34)"}, "SRPK2 (human)": {"biological_target": "SRPK2 (human) (UniProt P78362)"}, "RPS6KA1 KD1 (human)": {"biological_target": "RPS6KA1 KD1 (human) (UniProt Q15418)"}, "ZAP70 (human)": {"biological_target": "ZAP70 (human) (UniProt P43403)", "sequence (P43403 whole entry, looked up)": "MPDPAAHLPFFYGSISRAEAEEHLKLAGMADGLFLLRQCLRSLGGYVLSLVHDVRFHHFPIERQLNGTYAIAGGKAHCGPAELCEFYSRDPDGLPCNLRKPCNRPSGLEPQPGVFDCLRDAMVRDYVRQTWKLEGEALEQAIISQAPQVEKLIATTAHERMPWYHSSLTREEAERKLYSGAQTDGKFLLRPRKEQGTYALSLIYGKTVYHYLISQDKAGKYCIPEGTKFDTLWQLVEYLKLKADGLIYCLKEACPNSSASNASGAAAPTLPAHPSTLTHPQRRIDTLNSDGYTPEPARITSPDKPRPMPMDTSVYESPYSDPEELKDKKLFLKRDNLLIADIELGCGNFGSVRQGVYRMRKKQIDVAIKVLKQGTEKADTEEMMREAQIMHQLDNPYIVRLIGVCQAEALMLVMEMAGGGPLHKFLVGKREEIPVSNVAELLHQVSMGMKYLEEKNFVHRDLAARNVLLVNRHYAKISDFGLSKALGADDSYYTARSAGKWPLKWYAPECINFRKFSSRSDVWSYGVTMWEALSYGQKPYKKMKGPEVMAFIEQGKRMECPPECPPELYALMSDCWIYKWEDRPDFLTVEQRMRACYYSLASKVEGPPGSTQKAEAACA"}, "MARK2 (human)": {"biological_target": "MARK2 (human) (UniProt Q7KZI7)"}, "EPHA3 (human)": {"biological_target": "EPHA3 (human) (UniProt P29320)"}, "CAMK2D (human)": {"biological_target": "CAMK2D (human) (UniProt Q13557)"}, "CDK16 (human)": {"biological_target": "CDK16 (human) (UniProt Q00536)"}, "[2]": {"biological_target": "JAK1 JH2 pseudokinase (human) (UniProt P23458)"}, "AXL (human)": {"biological_target": "AXL (human) (UniProt P30530)"}}, "data": [{"compound": "COc1cc(C(=O)NC2CCN(C)CC2)ccc1Nc1ncc2c(n1)N(C1CCCC1)C(C)CC(=O)N2C", "note": "(stereo not given)", "values": [{"measurement": "kinase still bound, per cent of control", "setting": "INSRR (human)", "result": 26, "unit": "%"}, {"measurement": "kinase still bound, per cent of control", "setting": "STK25 (human)", "result": 100, "unit": "%"}, {"measurement": "kinase still bound, per cent of control", "setting": "CAMKK1 (human)", "result": 100, "unit": "%"}, {"measurement": "kinase still bound, per cent of control", "setting": "STK38L (human)", "result": 100, "unit": "%"}, {"measurement": "kinase still bound, per cent of control", "setting": "ALK (human)", "result": 6.2, "unit": "%"}, {"measurement": "kinase still bound, per cent of control", "setting": "CSNK1A1L (human)", "result": 100, "unit": "%"}, {"measurement": "kinase still bound, per cent of control", "setting": "NEK9 (human)", "result": 100, "unit": "%"}, {"measurement": "kinase still bound, per cent of control", "setting": "PRKAA1 (human)", "result": 100, "unit": "%"}, {"measurement": "kinase still bound, per cent of control", "setting": "MAPK3 (human)", "result": 100, "unit": "%"}, {"measurement": "kinase still bound, per cent of control", "setting": "SIK2 (human)", "result": 100, "unit": "%"}, {"measurement": "kinase still bound, per cent of control", "setting": "STK16 (human)", "result": 100, "unit": "%"}, {"measurement": "kinase still bound, per cent of control", "setting": "MYO3A (human)", "result": 100, "unit": "%"}, {"measurement": "kinase still bound, per cent of control", "setting": "GSK3A (human)", "result": 100, "unit": "%"}, {"measurement": "kinase still bound, per cent of control", "setting": "CDK9 (human)", "result": 100, "unit": "%"}, {"measurement": "kinase still bound, per cent of control", "setting": "LATS2 (human)", "result": 100, "unit": "%"}, {"measurement": "kinase still bound, per cent of control", "setting": "CDC42BPA (human)", "result": 100, "unit": "%"}, {"measurement": "kinase still bound, per cent of control", "setting": "IKBKE (human)", "result": 100, "unit": "%"}, {"measurement": "kinase still bound, per cent of control", "setting": "MARK1 (human)", "result": 100, "unit": "%"}, {"measurement": "kinase still bound, per cent of control", "setting": "SYK (human)", "result": 100, "unit": "%"}, {"measurement": "kinase still bound, per cent of control", "setting": "PRKX (human)", "result": 100, "unit": "%"}, {"measurement": "kinase still bound, per cent of control", "setting": "ROS1 (human)", "result": 100, "unit": "%"}, {"measurement": "kinase still bound, per cent of control", "setting": "MST1R (human)", "result": 100, "unit": "%"}, {"measurement": "kinase still bound, per cent of control", "setting": "CLK3 (human)", "result": 100, "unit": "%"}, {"measurement": "kinase still bound, per cent of control", "setting": "MAP4K2 (human)", "result": 100, "unit": "%"}, {"measurement": "kinase still bound, per cent of control", "setting": "TGFBR2 (human)", "result": 100, "unit": "%"}, {"measurement": "kinase still bound, per cent of control", "setting": "NEK6 (human)", "result": 100, "unit": "%"}, {"measurement": "kinase still bound, per cent of control", "setting": "[1]", "result": 100, "unit": "%"}, {"measurement": "kinase still bound, per cent of control", "setting": "CLK1 (human)", "result": 18, "unit": "%"}, {"measurement": "kinase still bound, per cent of control", "setting": "SLK (human)", "result": 1.4, "unit": "%"}, {"measurement": "kinase still bound, per cent of control", "setting": "PRKACB (human)", "result": 100, "unit": "%"}, {"measurement": "kinase still bound, per cent of control", "setting": "MARK4 (human)", "result": 100, "unit": "%"}, {"measurement": "kinase still bound, per cent of control", "setting": "SRPK2 (human)", "result": 100, "unit": "%"}, {"measurement": "kinase still bound, per cent of control", "setting": "RPS6KA1 KD1 (human)", "result": 100, "unit": "%"}, {"measurement": "kinase still bound, per cent of control", "setting": "ZAP70 (human)", "result": 100, "unit": "%"}, {"measurement": "kinase still bound, per cent of control", "setting": "MARK2 (human)", "result": 100, "unit": "%"}, {"measurement": "kinase still bound, per cent of control", "setting": "EPHA3 (human)", "result": 100, "unit": "%"}, {"measurement": "kinase still bound, per cent of control", "setting": "CAMK2D (human)", "result": 100, "unit": "%"}, {"measurement": "kinase still bound, per cent of control", "setting": "CDK16 (human)", "result": 100, "unit": "%"}, {"measurement": "kinase still bound, per cent of control", "setting": "[2]", "result": 22, "unit": "%"}, {"measurement": "kinase still bound, per cent of control", "setting": "AXL (human)", "result": 100, "unit": "%"}]}, {"compound": "N#Cc1c(NC(=O)c2cccc3ccccc23)sc2c1CCCC2", "values": [{"measurement": "kinase still bound, per cent of control", "setting": "INSRR (human)", "result": 100, "unit": "%"}, {"measurement": "kinase still bound, per cent of control", "setting": "STK25 (human)", "result": 93, "unit": "%"}, {"measurement": "kinase still bound, per cent of control", "setting": "CAMKK1 (human)", "result": 91, "unit": "%"}, {"measurement": "kinase still bound, per cent of control", "setting": "STK38L (human)", "result": 98, "unit": "%"}, {"measurement": "kinase still bound, per cent of control", "setting": "ALK (human)", "result": 100, "unit": "%"}, {"measurement": "kinase still bound, per cent of control", "setting": "CSNK1A1L (human)", "result": 66, "unit": "%"}, {"measurement": "kinase still bound, per cent of control", "setting": "NEK9 (human)", "result": 70, "unit": "%"}, {"measurement": "kinase still bound, per cent of control", "setting": "PRKAA1 (human)", "result": 80, "unit": "%"}, {"measurement": "kinase still bound, per cent of control", "setting": "MAPK3 (human)", "result": 74, "unit": "%"}, {"measurement": "kinase still bound, per cent of control", "setting": "SIK2 (human)", "result": 78, "unit": "%"}, {"measurement": "kinase still bound, per cent of control", "setting": "STK16 (human)", "result": 89, "unit": "%"}, {"measurement": "kinase still bound, per cent of control", "setting": "MYO3A (human)", "result": 42, "unit": "%"}, {"measurement": "kinase still bound, per cent of control", "setting": "GSK3A (human)", "result": 72, "unit": "%"}, {"measurement": "kinase still bound, per cent of control", "setting": "CDK9 (human)", "result": 83, "unit": "%"}, {"measurement": "kinase still bound, per cent of control", "setting": "LATS2 (human)", "result": 75, "unit": "%"}, {"measurement": "kinase still bound, per cent of control", "setting": "CDC42BPA (human)", "result": 100, "unit": "%"}, {"measurement": "kinase still bound, per cent of control", "setting": "IKBKE (human)", "result": 100, "unit": "%"}, {"measurement": "kinase still bound, per cent of control", "setting": "MARK1 (human)", "result": 100, "unit": "%"}, {"measurement": "kinase still bound, per cent of control", "setting": "SYK (human)", "result": 99, "unit": "%"}, {"measurement": "kinase still bound, per cent of control", "setting": "PRKX (human)", "result": 100, "unit": "%"}, {"measurement": "kinase still bound, per cent of control", "setting": "ROS1 (human)", "result": 90, "unit": "%"}, {"measurement": "kinase still bound, per cent of control", "setting": "MST1R (human)", "result": 95, "unit": "%"}, {"measurement": "kinase still bound, per cent of control", "setting": "CLK3 (human)", "result": 72, "unit": "%"}, {"measurement": "kinase still bound, per cent of control", "setting": "MAP4K2 (human)", "result": 100, "unit": "%"}, {"measurement": "kinase still bound, per cent of control", "setting": "TGFBR2 (human)", "result": 100, "unit": "%"}, {"measurement": "kinase still bound, per cent of control", "setting": "NEK6 (human)", "result": 92, "unit": "%"}, {"measurement": "kinase still bound, per cent of control", "setting": "[1]", "result": 98, "unit": "%"}, {"measurement": "kinase still bound, per cent of control", "setting": "CLK1 (human)", "result": 69, "unit": "%"}, {"measurement": "kinase still bound, per cent of control", "setting": "SLK (human)", "result": 82, "unit": "%"}, {"measurement": "kinase still bound, per cent of control", "setting": "PRKACB (human)", "result": 80, "unit": "%"}, {"measurement": "kinase still bound, per cent of control", "setting": "MARK4 (human)", "result": 97, "unit": "%"}, {"measurement": "kinase still bound, per cent of control", "setting": "SRPK2 (human)", "result": 100, "unit": "%"}, {"measurement": "kinase still bound, per cent of control", "setting": "RPS6KA1 KD1 (human)", "result": 100, "unit": "%"}, {"measurement": "kinase still bound, per cent of control", "setting": "ZAP70 (human)", "result": 87, "unit": "%"}, {"measurement": "kinase still bound, per cent of control", "setting": "MARK2 (human)", "result": 100, "unit": "%"}, {"measurement": "kinase still bound, per cent of control", "setting": "EPHA3 (human)", "result": 100, "unit": "%"}, {"measurement": "kinase still bound, per cent of control", "setting": "CAMK2D (human)", "result": 93, "unit": "%"}, {"measurement": "kinase still bound, per cent of control", "setting": "CDK16 (human)", "result": 100, "unit": "%"}, {"measurement": "kinase still bound, per cent of control", "setting": "[2]", "result": 90, "unit": "%"}, {"measurement": "kinase still bound, per cent of control", "setting": "AXL (human)", "result": 88, "unit": "%"}]}]}
